{"source": "patent US10072011B2", "about": "“Substituted bridged urea analogs as sirtuin modulators” (GlaxoSmithKline Intellectual Property (No.2) Limited, priority 2014, dated 2018)", "target": "T1, SIRT1 (Homo sapiens, UniProt Q96EB6)", "T1 sequence (Q96EB6 1-747)": "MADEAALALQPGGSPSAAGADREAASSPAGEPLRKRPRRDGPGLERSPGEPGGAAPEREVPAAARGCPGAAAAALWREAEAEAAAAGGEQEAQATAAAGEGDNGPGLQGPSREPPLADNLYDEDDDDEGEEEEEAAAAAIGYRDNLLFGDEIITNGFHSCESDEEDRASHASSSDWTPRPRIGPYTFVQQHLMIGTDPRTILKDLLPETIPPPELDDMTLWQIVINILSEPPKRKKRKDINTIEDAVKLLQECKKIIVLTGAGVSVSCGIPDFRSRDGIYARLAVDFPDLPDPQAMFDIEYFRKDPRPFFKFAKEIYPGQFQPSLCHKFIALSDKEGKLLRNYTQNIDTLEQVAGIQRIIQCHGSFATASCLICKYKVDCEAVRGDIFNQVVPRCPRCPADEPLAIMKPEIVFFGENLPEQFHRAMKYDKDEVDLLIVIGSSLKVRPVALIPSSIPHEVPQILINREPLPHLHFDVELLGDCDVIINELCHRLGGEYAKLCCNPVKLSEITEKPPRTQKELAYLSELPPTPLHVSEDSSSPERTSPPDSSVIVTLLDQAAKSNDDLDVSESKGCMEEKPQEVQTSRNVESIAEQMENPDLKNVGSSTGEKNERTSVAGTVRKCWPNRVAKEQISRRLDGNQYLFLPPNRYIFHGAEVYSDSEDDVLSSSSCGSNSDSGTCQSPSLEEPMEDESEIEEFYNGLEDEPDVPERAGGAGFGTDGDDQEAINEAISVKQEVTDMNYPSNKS", "assay": "Trp mass spectrometry assay of SIRT1 activation (Ac-R-H-K-K(Ac)-W-NH2 peptide)", "type": "biochemical", "details": "Trp peptide 0.5 μM, 120 μM βNAD+, 10 nM SIRT1, 25 min at 25° C.; for Emax: 25 min, relative to control (100%), read-out: TRP MAX RESP (percent maximum fold activation)", "in_short": "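Mass spectrometry read-out (OAADPR formed, or deacetylated Trp peptide) after a 25 min NAD-dependent deacetylation by E. coli-expressed His-SIRT1, stopped with formic acid.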"}
{"compound": "O=C(NCCF)c1ccc2c(n1)N(C(=O)Nc1ccccn1)[C@H]1CCN2C1", "note": "[Example 39, (4S)—N7-(2-fluoroethyl)-N5-(pyridin-2-yl)-3,4-dihydro-1,4-methanopyrido[2,3-b][1,4]diazepine-5,7(2H)-dicarboxamide]", "values": [{"measurement": "Emax", "result": "> 150", "unit": "%"}, {"measurement": "TRP Activity (EC1.5, concentration of test compound that results in 150% activation of SIRT1)", "result": "A (EC1.5<1 μM)"}]}
{"compound": "CCCNC(=O)c1ccc2c(n1)N(C(=O)Nc1ccccn1)[C@H]1CCN2C1", "note": "[Example 40, (4S)—N7-propyl-N5-(pyridin-2-yl)-3,4-dihydro-1,4-methanopyrido[2,3-b][1,4]diazepine-5,7(2H)-dicarboxamide]", "values": [{"measurement": "Emax", "result": "> 150", "unit": "%"}, {"measurement": "TRP Activity (EC1.5, concentration of test compound that results in 150% activation of SIRT1)", "result": "A (EC1.5<1 μM)"}]}
{"compound": "CC(C)(CO)CNC(=O)c1ccc2c(n1)N(C(=O)Nc1ccccn1)[C@H]1CCN2C1", "note": "[Example 41, (4S)—N7-(3-hydroxy-2,2-dimethylpropyl)-N5-(pyridin-2-yl)-3,4-dihydro-1,4-methanopyrido[2,3-b][1,4]diazepine-5,7(2H)-dicarboxamide]", "values": [{"measurement": "Emax", "result": "> 150", "unit": "%"}, {"measurement": "TRP Activity (EC1.5, concentration of test compound that results in 150% activation of SIRT1)", "result": "B (EC1.5 1-25 μM)"}]}
{"compound": "O=C(NC[C@H]1CCCO1)c1ccc2c(n1)N(C(=O)Nc1ccccn1)[C@H]1CCN2C1", "note": "[Example 42, (4S)—N5-(pyridin-2-yl)-N7-(((R)-tetrahydrofuran-2-yl)methyl)-3,4-dihydro-1,4-methanopyrido[2,3-b][1,4]diazepine-5,7(2H)-dicarboxamide]", "values": [{"measurement": "Emax", "result": "> 150", "unit": "%"}, {"measurement": "TRP Activity (EC1.5, concentration of test compound that results in 150% activation of SIRT1)", "result": "B (EC1.5 1-25 μM)"}]}
{"compound": "CC(C)[C@@H](C)NC(=O)c1ccc2c(n1)N(C(=O)Nc1ccccn1)[C@H]1CCN2C1", "note": "[Example 45, (4S)—N7-((R)-3-methylbutan-2-yl)-N5-(pyridin-2-yl)-3,4-dihydro-1,4-methanopyrido[2,3-b][1,4]diazepine-5,7(2H)-dicarboxamide]", "values": [{"measurement": "Emax", "result": "> 150", "unit": "%"}, {"measurement": "TRP Activity (EC1.5, concentration of test compound that results in 150% activation of SIRT1)", "result": "A (EC1.5<1 μM)"}]}
{"compound": "O=C(N[C@H](C1CC1)C(F)(F)F)c1ccc2c(n1)N(C(=O)Nc1ccccn1)[C@H]1CCN2C1", "note": "[Example 46, (4S)—N7-((R)-1-cyclopropyl-2,2,2-trifluoroethyl)-N5-(pyridin-2-yl)-3,4-dihydro-1,4-methanopyrido[2,3-b][1,4]diazepine-5,7(2H)-dicarboxamide]", "values": [{"measurement": "Emax", "result": "> 150", "unit": "%"}, {"measurement": "TRP Activity (EC1.5, concentration of test compound that results in 150% activation of SIRT1)", "result": "A (EC1.5<1 μM)"}]}
{"compound": "CC(F)(F)CNC(=O)c1ccc2c(n1)N(C(=O)Nc1ccccn1)[C@H]1CCN2C1", "note": "[Example 47, (4S)—N7-(2,2-difluoropropyl)-N5-(pyridin-2-yl)-3,4-dihydro-1,4-methanopyrido[2,3-b][1,4]diazepine-5,7(2H)-dicarboxamide]", "values": [{"measurement": "Emax", "result": "> 150", "unit": "%"}, {"measurement": "TRP Activity (EC1.5, concentration of test compound that results in 150% activation of SIRT1)", "result": "A (EC1.5<1 μM)"}]}
{"compound": "CC(C)(C)NC(=O)c1ccc2c(n1)N(C(=O)Nc1ccccn1)[C@H]1CCN2C1", "note": "[Example 48, (4S)—N7-(tert-butyl)-N5-(pyridin-2-yl)-3,4-dihydro-1,4-methanopyrido[2,3-b][1,4]diazepine-5,7(2H)-dicarboxamide]", "values": [{"measurement": "Emax", "result": "> 150", "unit": "%"}, {"measurement": "TRP Activity (EC1.5, concentration of test compound that results in 150% activation of SIRT1)", "result": "B (EC1.5 1-25 μM)"}]}
{"compound": "O=C(NCC1CC1)c1ccc2c(n1)N(C(=O)Nc1ccc(Cl)cn1)[C@H]1CCN2C1", "note": "[Example 51, (4S)—N5-(5-chloropyridin-2-yl)-N7-(cyclopropylmethyl)-3,4-dihydro-1,4-methanopyrido[2,3-b][1,4]diazepine-5,7(2H)-dicarboxamide]", "values": [{"measurement": "Emax", "result": "> 150", "unit": "%"}, {"measurement": "TRP Activity (EC1.5, concentration of test compound that results in 150% activation of SIRT1)", "result": "A (EC1.5<1 μM)"}]}
{"compound": "O=C(NC[C@H](O)C(F)(F)F)c1ccc2c(n1)N(C(=O)Nc1ccccn1)[C@H]1CCN2C1", "note": "[Example 52, (4S)—N5-(pyridin-2-yl)-N7-((S)-3,3,3-trifluoro-2-hydroxypropyl)-3,4-dihydro-1,4-methanopyrido[2,3-b][1,4]diazepine-5,7(2H)-dicarboxamide]", "values": [{"measurement": "Emax", "result": "> 150", "unit": "%"}, {"measurement": "TRP Activity (EC1.5, concentration of test compound that results in 150% activation of SIRT1)", "result": "A (EC1.5<1 μM)"}]}
